What all share (format): in vivo, C57/BL6 mice
Series [1] in a line: Study 1: body weight gain in mice on standard laboratory diet, 12 weeks intragastric supplementation. From the text:
Materials Used: Shilajit (PrimaVie®, Natreon, Inc., New Brunswick, N.J.), a standardized dietary supplement ingredient extracted and processed from Shilajit bearing rocks, containing not less than about 50% by weight fulvic acids (FAs), at least about 10% by weight dibenzo-α-pyrone chromoproteins, and at least 0.3%, or more, by weight total dibenzo-α-pyrones (DBPs), 3-OH-DBP (99.0% purity, Natreon, Inc.), and 3,8-(OH)2-DBP (99.0% purity, Natreon, Inc) were used.
Three groups of adult C57/BL6 mice (n=8) were intragastrically supplemented with purified Shilajit (PS), 3,8-dihydroxy-dibenzo-α-pyrone (3,8-(OH)2-DBP) or placebo for 12 weeks. Body weight was measured every week. At the end of week 12, skeletal muscle tissue was harvested for gene profiling. Some tissue was stored for histology and HPLC analysis.
The control group of mice received DMSO in corn oil while the PS group received 100 mg of purified Shilajit/kg body weight of mice, dissolved in water and the DBP group received 10 mg of 3,8-(OH)2-DBP/kg body weight of mice, dissolved in DMSO/corn oil.
At week 12, the following tissues were collected: heart, lung, liver, brain, muscles, adipose tissue, skeletal muscle (vastus lateralis) and whole blood.

A short description of series [2]: Study 2: body weight gain in mice on standard laboratory diet, 10 then 50 mg/kg DBPs. The conditions noted are these: for less body weight gain / less gain in body weight: 10 mg/kg b.w.; for less body weight gain: at 8 weeks; for less gain in body weight: at four weeks; for less weight gain: 3 weeks after increasing the dose to 50 mg/kg b.w. (from 13th week). As for the experimental part: Since the results from Study 1 were totally unexpected, Study 2 was carried out in order to validate the results from Study 1 and also to determine if another bioactive of Shilajit, 3-hydroxy-dibenzo-α-pyrone, may have a similar beneficial effect on controlling body weight gain. Study 2 was carried out under similar experimental conditions as Study 1, using standard laboratory diet, except that a 10 mg/kg body weight dose was administered for the first 12 weeks and then the dose was increased to 50 mg/kg body weight from the 13th week through the 19th week. The primary purpose of increasing the dose is to find out if the response is dose proportional. […] It is interesting to note that 3 weeks after increasing the dose of DBPs to 50 mg/kg b.w., 3-OH-DBP group still maintained about 45% less weight gain while the 3,8-(OH)2-DBP group retained only about 10% less weight gain. […] The secondary purpose of increasing the dose is to find out if increased dose is toxic. Different tissues were collected from the mice and toxicological examination will be conducted.

Series [3] can be described thus: Study 3: body weight gain in mice on high fat diet, later switched to standard diet. The conditions noted are these: starting at 14 weeks, after switching to standard laboratory diet. As for the experimental part:
Since the Studies 1 and 2 were carried out with standard laboratory diet, it was imperative to do a study with high fat diet fed mice. Study 3 was conducted using such a diet (Bio-Serve Cat# 534282, 36% fat). After 11 weeks, the high fat diet was replaced with the standard laboratory diet. […] However, starting at 14 weeks after switching to the standard laboratory diet, there is a trend in both the DBP groups for less weight gain compared to the placebo group. […] Thus, it is possible that the DBPs, especially the 3-OH-DBP, may have the potential to control body weight gain in individuals on fatty diet as well, though at a slower pace than in individuals on normal diet.

Take `O=c1oc2cc(O)ccc2c2ccc(O)cc12` [3,8-(OH)2-DBP, 3,8-dihydroxy-dibenzo-α-pyrone]: the “weight gained in 90 days” value in series [1] (10 mg/kg body weight in DMSO/corn oil, intragastric, standard laboratory diet, 90 days) was “about 7.5%”. Besides, the “overt signs of health compromise” value in series [1] (10 mg/kg body weight, 12 weeks) is reported as “no overt signs of health compromise”. Also, the “age-dependent gain in body weight” value in series [1] (standard laboratory diet/conditions) is given as “significant decrease”. Besides, in series [2], the “less body weight gain” value is reported as “about 50%”, the “less gain in body weight” value was roughly 40% and the less weight gain entry is “about 10%”.

Consider `O=c1oc2cc(O)ccc2c2ccccc12` [3-OH-DBP, 3-hydroxy-dibenzo-α-pyrone], for which, in series [2], the “less body weight gain” value is given as “about 50%”, the “less gain in body weight” value is “about 45%” and the less weight gain result was “about 45%”. Besides, in series [3], the “trend for less weight gain compared to placebo” value is recorded as “especially prominent”.

The values above are taken from patent US9901596B2, “Regulation of body weight gain by using dibenzo-alpha-pyrones” (Natreon, Inc., priority 2013, dated 2018).
